This is an account of results in article PMC10303036 (Journal of medicinal chemistry, 2022).

In brackets after ≈: the same amount, converted by molar mass. Entries after “also recorded” stand apart in the source; their conditions may differ. Like-named read-outs stand apart in the source and are kept apart here.

The subject of test [1] is E. coli ΔtolC. The format is cell-based.
Test [2] addresses ACC complex (Escherichia coli, UniProt P0A9Q5+P0ABD5+P24182). Description: Spin-column LC-MS/MS competition assay. It counts as binding, E. coli. As to conditions: for dissociation from ACC with 1 and 3 together: 50 μM of 1 and 3 together added to ACC-inhibitor complex; for dissociation from ACC with 1 alone: 100 μM of 1 alone added to ACC-inhibitor complex.
Test [3] has as its target E. coli ACC (Escherichia coli, UniProt P0A9Q5+P0ABD5+P24182). In words: ACC activity fluorescence polarization assay. It counts as biochemical. The conditions noted are these: for IC50: IC50, fluorescence polarization assay, triplicate, ± SD; for Ki: Ki (apparent, Morrison equation), tight binding inhibitors (IC50 < 0.5 nM), fluorescence polarization assay. (In general: In fluorescence polarisation assays a small probe gives low polarisation when free and higher when bound to something large.)

For test [4] the following is noted: literature antibacterial activity, strain not stated; cited from earlier work.

Sequence of E. coli ACC (P0ABD5 whole entry): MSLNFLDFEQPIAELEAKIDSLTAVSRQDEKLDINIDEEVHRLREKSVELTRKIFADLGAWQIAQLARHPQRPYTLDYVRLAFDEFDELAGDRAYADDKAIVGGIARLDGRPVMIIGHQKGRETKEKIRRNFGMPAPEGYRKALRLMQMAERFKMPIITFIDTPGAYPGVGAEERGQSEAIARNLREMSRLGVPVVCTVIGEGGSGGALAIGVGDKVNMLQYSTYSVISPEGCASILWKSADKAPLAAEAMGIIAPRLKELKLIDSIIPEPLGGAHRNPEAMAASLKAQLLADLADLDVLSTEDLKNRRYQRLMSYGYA
Sequence of E. coli ACC (P0A9Q5 whole entry): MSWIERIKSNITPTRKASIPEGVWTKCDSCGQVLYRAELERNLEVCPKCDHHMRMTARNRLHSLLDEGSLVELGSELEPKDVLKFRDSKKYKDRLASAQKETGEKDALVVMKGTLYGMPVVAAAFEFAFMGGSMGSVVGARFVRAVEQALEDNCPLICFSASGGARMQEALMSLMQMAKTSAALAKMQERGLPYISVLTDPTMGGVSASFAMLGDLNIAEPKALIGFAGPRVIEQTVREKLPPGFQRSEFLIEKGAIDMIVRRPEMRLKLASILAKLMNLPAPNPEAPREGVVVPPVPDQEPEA
Sequence of ACC complex (P0A9Q5 whole entry): as above
Sequence of ACC complex (P0ABD5 whole entry): as the sequence (P0ABD5 whole entry) above

Turning to `C#CCCCCOCCOCCOCCOCCOCCOCCOCCOCCOCCOCCOCCOCCOc1ccc(Br)c(-c2cc3cnc(N)nc3nc2N)c1Br` [Compound 9e, 6-(2,6-dibromo-3-(3,6,9,12,15,18,21,24,27,30,33,36-dodecaoxadotetracont-41-yn-1-yloxy)phenyl)pyrido[2,3-d]pyrimidine-2,7-diamine], the “MIC ΔtolC + PMBN” value in test [1] (PMBN 6 μM (8 μg/mL)) stood at 12.5 µM. Take `CC(C)[C@H](NC(=O)C[C@H](NC(=O)CCCCCCCCCCn1cc(CCCCOc2ccc(Br)c(-c3cc4cnc(N)nc4nc3N)c2Br)nn1)c1ccccc1)C(=O)[C@@H]1C(=O)NC(=O)[C@H]1C` [Compound 15, 11-(4-(4-(2,4-dibromo-3-(2,7-diaminopyrido[2,3-d]pyrimidin-6-yl)phenoxy)butyl)-1H-1,2,3-triazol-1-yl)-N-((1S)-3-(((2S)-3-methyl-1-((3R,4S)-4-methyl-2,5-dioxopyrrolidin-3-yl)-1-oxobutan-2-yl)amino)-3-oxo-1-phenylpropyl)undecanamide]: in test [2], the “dissociation from ACC with 1 and 3 together” value is reported as “rapid dissociation”; the “dissociation from ACC with 1 alone” value is “little or no dissociation”. As to `C#CCCCCOCCOCCOCCOCCOCCOCCOc1cc(Br)c(-c2cc3cnc(N)nc3nc2N)c(Br)c1` [Compound 9c-p, 6-(2,6-dibromo-4-(3,6,9,12,15,18-hexaoxatetracos-23-yn-1-yloxy)phenyl)pyrido[2,3-d]pyrimidine-2,7-diamine], in test [3], the IC50 – broadly, the concentration that gives 50% inhibition – is over 500 nM. Turning to `Nc1ncc(C(=O)N(Cc2ccccc2)Cc2ccccc2)o1` [Compound 2], the MIC (usually the least concentration at which growth counts as inhibited) in test [4] was over 64 mg/L. For the molecule `CC(C)[C@H](NC(=O)C[C@H](NC(=O)CCCCCCCCCCn1cc(CCCCOCCOCCOCCOc2ccc(Br)c(-c3cc4cnc(N)nc4nc3N)c2Br)nn1)c1ccccc1)C(=O)[C@@H]1C(=O)NC(=O)[C@H]1C` [Compound 16, 11-(4-(4-(2-(2-(2-(2,4-dibromo-3-(2,7-diaminopyrido[2,3-d]pyrimidin-6-yl)phenoxy)ethoxy)ethoxy)ethoxy)butyl)-1H-1,2,3-triazol-1-yl)-N-((1S)-3-(((2S)-3-methyl-1-((3R,4S)-4-methyl-2,5-dioxopyrrolidin-3-yl)-1-oxobutan-2-yl)amino)-3-oxo-1-phenylpropyl)undecanamide], in test [2], the “dissociation from ACC with 1 and 3 together” value is “rapid dissociation”; the “dissociation from ACC with 1 alone” value was “little or no dissociation”.

Consider `CC(C)[C@H](NC(=O)C[C@H](NC(=O)CCCCCCCCCCn1cc(CCCCOCCOCCOCCOCCOCCOCCOc2ccc(Br)c(-c3cc4cnc(N)nc4nc3N)c2Br)nn1)c1ccccc1)C(=O)[C@@H]1C(=O)NC(=O)[C@H]1C` [Compound 17, 11-(4-(22-(2,4-dibromo-3-(2,7-diaminopyrido[2,3-d]pyrimidin-6-yl)phenoxy)-5,8,11,14,17,20-hexaoxadocos-1-yl)-1H-1,2,3-triazol-1-yl)-N-((1S)-3-(((2S)-3-methyl-1-((3R,4S)-4-methyl-2,5-dioxopyrrolidin-3-yl)-1-oxobutan-2-yl)amino)-3-oxo-1-phenylpropyl)undecanamide], for which, in test [3], the Ki came to 0.2 nM. Besides, the “MIC ΔtolC + PMBN” value in test [1] (PMBN included) worked out at 0.5 mg/L. Also, the “MIC ΔtolC” value in test [1] (without PMBN) was 4 mg/L (≈ 3.02 µM). The “dissociation from ACC with 1 and 3 together” value in test [2] is recorded as “rapid dissociation”. Moreover, the “dissociation from ACC with 1 or 3 alone” value in test [2] (100 μM (100-fold excess) of 1 or 3 alone added to ACC-inhibitor complex) is listed as “unable to displace; also recorded: No dissociation”. In the case of `C/C=C/C=C/C(=O)N[C@@H](CC(=O)N[C@H](C(=O)[C@@H]1C(=O)NC(=O)[C@H]1C)C(C)C)c1ccccc1` [Compound 3, moiramide B, reference compound], the IC50 in test [3] amounted to 5 nM.

On to `CC(C)[C@H](NC(=O)C[C@H](NC(=O)CCCCCCCCCCn1cc(CCCCOCCOCCOCCOCCOCCOCCOc2cc(Br)c(-c3cc4cnc(N)nc4nc3N)c(Br)c2)nn1)c1ccccc1)C(=O)[C@@H]1C(=O)NC(=O)[C@H]1C` [Compound 17-p, 11-(4-(22-(3,5-dibromo-4-(2,7-diaminopyrido[2,3-d]pyrimidin-6-yl)phenoxy)-5,8,11,14,17,20-hexaoxadocos-1-yl)-1H-1,2,3-triazol-1-yl)-N-((1S)-3-(((2S)-3-methyl-1-((3R,4S)-4-methyl-2,5-dioxopyrrolidin-3-yl)-1-oxobutan-2-yl)amino)-3-oxo-1-phenylpropyl)undecanamide], for which the Ki in test [3] amounted to 3.53 nM.
